The values below are quoted from earlier work in patent US11752097B2, “N-acetylcysteine compositions and methods” (Endo Ventures Limited, priority 2020, dated 2023).

Read-outs that look alike come from different tables or passages of the source.

The test system of data set [1] is acetaminophen-overdose-induced hepatotoxicity. To be noted: in vivo.
The conditions of data set [2]: pH 7, RT; reaction with Hydroxyl radical (^•OH).
For data set [3] the following is noted: pH 7, RT; reaction with Superoxide anion (O2^•−).
For data set [4] the following is noted: pH 7.4, 25° C.
The conditions of data set [5]: pH 7.4, 37° C.
The conditions of data set [6]: pH 7.4, RT.
For data set [7] the following is noted: pH 7.4, 37° C.; reaction with Nitroxyl (HNO).
The conditions of data set [8]: pH 7, 25° C.
For data set [9] the following is noted: Fe^3+.
For data set [10] the following is noted: Cu^2+.
For data set [11] the following is noted: Ni^2+.
The conditions of data set [12]: Zn^2+.
For data set [13] the following is noted: Co^2+.
The conditions of data set [14]: Cr^3+.
The conditions of data set [15]: Cd^2+.
The conditions of data set [16]: Hg^2+.
For data set [17] the following is noted: Mn^2+.
For data set [18] the following is noted: following intravenous administration.
Test in data set [19]: not given
This is another data set of the same source.

Test in data set [20]: not given
This is another data set of the same source.

For data set [21] the following is noted: ambient light.
Test in data set [22]: not given
This is another data set of the same source.

For data set [23] the following is noted: ingestion of 10-15 g in a single dose.
The mark [24] stands for this setting: 25° C. and 0.12 mol · dm^−3 ionic strength (NaClO4).
Setting [25] is: 25° C. and 0.1 mol · dm^−3 ionic strength (KNO3).
Where [26] appears, read: 37° C. and 0.15 mol · dm^−3 ionic strength (NaCl).

Regarding `CC(=O)N[C@H](CS)C(=O)O` (single isomer, unassigned) [D-isomer of acetylcysteine], the “Activity of isomer (prevention of hepatotoxicity)” value in data set [1] was “not prevent hepatotoxicity”; in data set [1] (listed as D-isomer) it was “inactive”.
For `CC(=O)N[C@@H](CS)C(=O)O` [Acetylcysteine, N-acetyl-L-cysteine], the Rate constant was 1.36e+10 M⁻¹ s⁻¹ in data set [2]; 68 ± 6 M⁻¹ s⁻¹ in data set [3]; 0.85 ± 0.09 M⁻¹ s⁻¹ in data set [4]; 415 ± 10 M⁻¹ s⁻¹ in data set [5]; 415 ± 10 M⁻¹ s⁻¹ in [5] (reaction with Peroxynitrite); approximately 1e+07 M⁻¹ s⁻¹ in data set [6]. Moreover, the Rate constant is 500000 M⁻¹ s⁻¹ in data set [7] and “(1.36 ± 0.2) × 10^4 M^−1 s^−1” in data set [8]. The “Complex formation constant (log K)” value is 10.58 in data set [9] (setting [24]); 9.02 in [10] (setting [25]); 6.64 in data set [10] (setting [26]); 5.02 in [11] (setting [24]); 4.86 in data set [11] (setting [26]); 7.04 in data set [12] (setting [25]). In addition, the “Complex formation constant (log K)” value in [12] (setting [26]) is 6.23; in data set [13] (setting [24]), 4.18; in data set [13] (setting [26]), 4.28; in data set [14] (setting [24]), 8.26; in data set [15] (setting [25]), 7.25; in data set [16] (setting [25]), 11.23. In addition, the “Complex formation constant (log K)” value in data set [17] (setting [26]) is reported as 3.64. Moreover, under “following an intravenous administration”, the “half-life (t1/2)” value was 5.7 h. The “administered acetylcysteine excreted in the urine unchanged” value (in vivo) is 20-30%. The Potential adverse reactions entry in data set [18] was “acute flushing and erythema of the skin, and anaphylactoid reactions”. For the same compound, the “Solubility: volume of alcohol for 1 gram” value in data set [19] (1 gram in alcohol) is given as 4 mL. In addition, the “Solubility: volume of water for 1 gram” value in data set [19] (1 gram in water) is 5 mL. For the same compound, the Solubility in chloroform result in data set [19] (chloroform) is reported as “insoluble”. Also, in data set [19] (ether), the Solubility in ether entry is reported as “insoluble”. The redox potential entry in data set [20] (relative to Glutathione (reduced GSH/oxidized GSSG) system as a reference standard) is recorded as “+63 mV”. In addition, the Light stability result in data set [21] is “stable in ambient light”. For the same compound, the “Reaction of solutions with contact materials” value in [22] (contact with rubber, some metals (particularly iron and copper surfaces), and/or autoclaving) was “discoloration and hydrogen sulfide generation”. For the same compound, the “Reaction with contact materials” value in [22] (glass, plastic, aluminum, anodized aluminum, chromed metal and stainless steel) is recorded as “does not react”. The “Activity of isomer (prevention of hepatotoxicity)” value in [1] is recorded as “active”.
In the case of `O=C(O)CN(CCN(CC(=O)O)CC(=O)O)CCN(CC(=O)O)CC(=O)O` [DTPA, diethylenetriaminepentaacetic acid], the “Complex formation constant (log K)” value was 28.60 in data set [9] (conditions not given); 21.53 in data set [10] (conditions not given); 20.32 in data set [11] (conditions not given); 18.75 in [12] (conditions not given); 18.40 in data set [13] (conditions not given); 19.31 in [15] (conditions not given). Besides, the “Complex formation constant (log K)” value in data set [16] (conditions not given) is on record as 27.00; in data set [17] (conditions not given) it was 15.60.
As for `CC(=O)Nc1ccc(O)cc1` [acetaminophen, Acetaminophen], in data set [23], the “time to hepatic damage after overdose” value is 2 to 5 days.
For the compound `N[C@@H](CCC(=O)N[C@@H](CS)C(=O)NCC(=O)O)C(=O)O` [Glutathione], the experimental redox potential in data set [20] (in the cytosol) is −289 mV.
Take `O=C(O)CN(CCN(CC(=O)O)CC(=O)O)CC(=O)O` [EDTA, Ethylenediaminetetraacetic acid]: the “Complex formation constant (log K)” value is recorded as 25.10 in data set [9] (conditions not given); 18.80 in data set [10] (conditions not given); 18.62 in data set [11] (conditions not given); 16.50 in data set [12] (conditions not given); 16.31 in [13] (conditions not given); 23.40 in data set [14] (conditions not given). Also, the “Complex formation constant (log K)” value in [15] (conditions not given) was 16.46; in [16] (conditions not given) it was 21.80; in data set [17] (conditions not given), 14.04.
